Laboratory results reported in patent publication US10670605B2, “Cysteine reactive probes and uses thereof” (The Scripps Research Institute, priority 2015, dated 2020).

Tests used:
CYR61 C70 (O00622) = CYR61 C70 (O00622) (Homo sapiens, UniProt O00622); experiment: Competitive isoTOP-ABPP, cell lysates; type: binding
[1] = molecular target: cysteines in MDA-MB-231 and Ramos cells (Homo sapiens, UniProt Q99986); experiment: Competitive isoTOP-ABPP in situ (fragment-treated cells); type: cell-based
Chain of cysteines in MDA-MB-231 and Ramos cells (Homo sapiens, UniProt Q99986) (Q99986 whole entry, the tested form may be a part): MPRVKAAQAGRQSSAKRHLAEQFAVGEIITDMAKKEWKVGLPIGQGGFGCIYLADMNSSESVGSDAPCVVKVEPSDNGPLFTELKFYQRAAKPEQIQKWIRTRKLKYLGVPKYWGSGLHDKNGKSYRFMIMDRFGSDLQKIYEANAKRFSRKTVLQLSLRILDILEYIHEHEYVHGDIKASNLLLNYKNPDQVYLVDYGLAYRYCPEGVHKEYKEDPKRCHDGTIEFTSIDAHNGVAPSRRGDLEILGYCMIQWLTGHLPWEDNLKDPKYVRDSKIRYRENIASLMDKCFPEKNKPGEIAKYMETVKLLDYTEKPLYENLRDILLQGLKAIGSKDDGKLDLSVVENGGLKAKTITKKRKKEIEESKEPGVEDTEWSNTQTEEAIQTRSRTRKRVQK

[2] = molecular target: cysteines in MDA-MB-231 and Ramos cells (Homo sapiens, UniProt P41226); experiment: as above; type: cell-based; details: 200 μM, insitu, 231
Chain of cysteines in MDA-MB-231 and Ramos cells (Homo sapiens, UniProt P41226) (P41226 whole entry): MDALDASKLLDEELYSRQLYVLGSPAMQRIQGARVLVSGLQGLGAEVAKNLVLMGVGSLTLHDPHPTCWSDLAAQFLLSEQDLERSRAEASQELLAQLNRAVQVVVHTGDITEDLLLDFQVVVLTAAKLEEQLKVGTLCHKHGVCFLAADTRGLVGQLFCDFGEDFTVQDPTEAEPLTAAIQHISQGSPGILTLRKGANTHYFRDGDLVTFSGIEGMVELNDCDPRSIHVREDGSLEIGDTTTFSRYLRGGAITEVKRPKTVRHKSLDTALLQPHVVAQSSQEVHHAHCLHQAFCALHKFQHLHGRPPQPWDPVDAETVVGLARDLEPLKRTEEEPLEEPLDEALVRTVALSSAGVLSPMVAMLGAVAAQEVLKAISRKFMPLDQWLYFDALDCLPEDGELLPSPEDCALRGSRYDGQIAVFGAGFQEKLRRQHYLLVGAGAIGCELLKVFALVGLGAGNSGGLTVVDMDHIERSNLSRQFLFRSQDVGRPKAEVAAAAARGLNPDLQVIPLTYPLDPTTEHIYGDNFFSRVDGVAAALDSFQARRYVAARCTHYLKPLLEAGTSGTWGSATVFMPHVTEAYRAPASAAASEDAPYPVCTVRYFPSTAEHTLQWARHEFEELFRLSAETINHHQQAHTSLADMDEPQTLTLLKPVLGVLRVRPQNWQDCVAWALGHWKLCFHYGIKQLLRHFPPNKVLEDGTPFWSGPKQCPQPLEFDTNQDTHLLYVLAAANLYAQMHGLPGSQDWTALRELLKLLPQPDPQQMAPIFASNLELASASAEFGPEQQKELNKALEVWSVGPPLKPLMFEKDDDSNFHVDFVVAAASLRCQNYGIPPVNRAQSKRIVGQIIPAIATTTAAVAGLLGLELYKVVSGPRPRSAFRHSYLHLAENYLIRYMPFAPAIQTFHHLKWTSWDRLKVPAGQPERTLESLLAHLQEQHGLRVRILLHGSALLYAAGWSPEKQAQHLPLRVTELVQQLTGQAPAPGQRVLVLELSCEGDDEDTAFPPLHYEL

[3] = molecular target: cysteines in MDA-MB-231 and Ramos cells (Homo sapiens, UniProt P16455); experiment: as above; type: cell-based; details: 200 μM, insitu, ramos
Chain of cysteines in MDA-MB-231 and Ramos cells (Homo sapiens, UniProt P16455) (P16455 whole entry): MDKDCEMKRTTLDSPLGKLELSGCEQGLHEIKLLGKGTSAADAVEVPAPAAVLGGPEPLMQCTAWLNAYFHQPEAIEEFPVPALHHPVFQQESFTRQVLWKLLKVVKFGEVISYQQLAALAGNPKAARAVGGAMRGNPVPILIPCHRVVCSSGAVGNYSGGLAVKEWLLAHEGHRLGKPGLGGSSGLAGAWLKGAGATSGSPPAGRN

[4] = molecular target: cysteines in MDA-MB-231 and Ramos cells (Homo sapiens, UniProt Q9Y2S7); experiment: as above; type: cell-based; details: 200 μM, insitu, 231
Chain of cysteines in MDA-MB-231 and Ramos cells (Homo sapiens, UniProt Q9Y2S7) (Q9Y2S7 52-368): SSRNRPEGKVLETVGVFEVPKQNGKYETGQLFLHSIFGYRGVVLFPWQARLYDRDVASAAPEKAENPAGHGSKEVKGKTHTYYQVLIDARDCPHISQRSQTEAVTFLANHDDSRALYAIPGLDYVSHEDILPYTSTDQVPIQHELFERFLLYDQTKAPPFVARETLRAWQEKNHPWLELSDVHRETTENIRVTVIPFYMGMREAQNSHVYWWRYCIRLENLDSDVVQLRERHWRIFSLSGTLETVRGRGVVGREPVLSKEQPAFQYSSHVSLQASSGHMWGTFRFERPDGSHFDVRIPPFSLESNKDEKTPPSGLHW

[5] = molecular target: cysteines in MDA-MB-231 and Ramos cells (Homo sapiens, UniProt Q9NZB2); experiment: as above; type: cell-based; details: 200 μM, insitu, 231
Chain of cysteines in MDA-MB-231 and Ramos cells (Homo sapiens, UniProt Q9NZB2) (Q9NZB2 whole entry): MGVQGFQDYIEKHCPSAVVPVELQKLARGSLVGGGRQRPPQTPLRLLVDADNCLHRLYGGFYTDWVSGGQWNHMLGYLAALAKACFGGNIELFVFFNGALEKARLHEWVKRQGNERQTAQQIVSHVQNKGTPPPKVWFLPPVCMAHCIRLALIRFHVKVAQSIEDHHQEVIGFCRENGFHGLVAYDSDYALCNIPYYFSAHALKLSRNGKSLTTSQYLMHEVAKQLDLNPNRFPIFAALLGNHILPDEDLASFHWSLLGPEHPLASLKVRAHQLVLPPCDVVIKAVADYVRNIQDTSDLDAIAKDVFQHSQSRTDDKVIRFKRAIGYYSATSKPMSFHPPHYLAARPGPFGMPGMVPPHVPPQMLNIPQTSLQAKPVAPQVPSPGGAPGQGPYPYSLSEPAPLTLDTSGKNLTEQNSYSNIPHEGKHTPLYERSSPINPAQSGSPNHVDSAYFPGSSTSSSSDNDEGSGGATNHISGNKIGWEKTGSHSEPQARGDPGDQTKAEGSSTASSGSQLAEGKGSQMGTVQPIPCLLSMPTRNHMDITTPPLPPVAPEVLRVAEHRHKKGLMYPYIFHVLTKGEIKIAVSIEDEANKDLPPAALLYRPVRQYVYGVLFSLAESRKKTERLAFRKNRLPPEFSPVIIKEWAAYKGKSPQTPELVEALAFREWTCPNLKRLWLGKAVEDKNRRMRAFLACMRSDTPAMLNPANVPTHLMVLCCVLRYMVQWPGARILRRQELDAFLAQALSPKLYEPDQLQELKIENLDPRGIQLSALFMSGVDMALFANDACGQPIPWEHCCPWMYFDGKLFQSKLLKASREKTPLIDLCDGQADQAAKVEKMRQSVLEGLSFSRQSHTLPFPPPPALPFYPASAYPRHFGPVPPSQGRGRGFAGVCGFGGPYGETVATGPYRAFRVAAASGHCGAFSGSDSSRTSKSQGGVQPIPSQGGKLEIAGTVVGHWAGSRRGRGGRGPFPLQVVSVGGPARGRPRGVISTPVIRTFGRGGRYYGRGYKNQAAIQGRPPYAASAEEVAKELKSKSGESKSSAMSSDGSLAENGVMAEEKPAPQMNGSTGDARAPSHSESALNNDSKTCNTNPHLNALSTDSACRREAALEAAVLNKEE

[6] = molecular target: T1, cysteines in MDA-MB-231 and Ramos cells (Homo sapiens, UniProt Q8NEC7); experiment: as above; type: cell-based; details: 200 μM, insitu
T1 sequence (Q8NEC7 1-633): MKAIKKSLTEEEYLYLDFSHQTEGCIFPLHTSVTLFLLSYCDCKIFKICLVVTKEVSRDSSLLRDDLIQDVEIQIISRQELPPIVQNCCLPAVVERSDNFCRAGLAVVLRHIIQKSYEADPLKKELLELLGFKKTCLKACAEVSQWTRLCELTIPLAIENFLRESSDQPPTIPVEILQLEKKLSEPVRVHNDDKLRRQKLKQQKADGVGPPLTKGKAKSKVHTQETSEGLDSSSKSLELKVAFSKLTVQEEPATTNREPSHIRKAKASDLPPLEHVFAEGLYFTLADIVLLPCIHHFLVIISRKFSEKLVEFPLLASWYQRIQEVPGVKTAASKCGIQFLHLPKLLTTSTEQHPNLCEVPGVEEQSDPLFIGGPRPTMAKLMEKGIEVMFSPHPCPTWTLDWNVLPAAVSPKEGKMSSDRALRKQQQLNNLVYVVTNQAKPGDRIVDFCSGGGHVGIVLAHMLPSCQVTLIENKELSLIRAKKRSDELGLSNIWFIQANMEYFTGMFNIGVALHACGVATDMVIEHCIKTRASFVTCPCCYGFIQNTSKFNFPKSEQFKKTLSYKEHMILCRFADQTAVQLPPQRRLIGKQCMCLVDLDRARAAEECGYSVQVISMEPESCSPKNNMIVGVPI

[7] = molecular target: cysteines in MDA-MB-231 and Ramos cells (Homo sapiens, UniProt Q13613); experiment: as above; type: cell-based; details: 200 μM, insitu
[8] = molecular target: cysteines in MDA-MB-231 and Ramos cells (Homo sapiens, UniProt Q15796); experiment: as above; type: cell-based; details: 200 μM, insitu
Chain of cysteines in MDA-MB-231 and Ramos cells (Homo sapiens, UniProt Q15796) (Q15796 whole entry): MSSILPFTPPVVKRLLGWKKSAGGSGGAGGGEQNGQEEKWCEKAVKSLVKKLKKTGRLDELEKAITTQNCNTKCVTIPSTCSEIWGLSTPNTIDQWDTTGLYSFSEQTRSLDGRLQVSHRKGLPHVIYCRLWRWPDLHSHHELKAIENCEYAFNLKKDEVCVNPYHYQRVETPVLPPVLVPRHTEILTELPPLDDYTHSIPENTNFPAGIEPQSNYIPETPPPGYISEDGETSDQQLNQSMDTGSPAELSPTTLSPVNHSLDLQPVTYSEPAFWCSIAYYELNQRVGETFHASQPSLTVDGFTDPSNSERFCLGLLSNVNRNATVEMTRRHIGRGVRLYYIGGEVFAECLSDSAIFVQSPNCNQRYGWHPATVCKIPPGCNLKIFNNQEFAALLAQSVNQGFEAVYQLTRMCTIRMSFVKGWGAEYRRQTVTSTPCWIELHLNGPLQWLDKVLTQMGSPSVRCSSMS

[9] = molecular target: cysteines in MDA-MB-231 and Ramos cells (Homo sapiens, UniProt Q6PJG6); experiment: as above; type: cell-based; details: 200 μM, insitu, ramos
[10] = molecular target: cysteines in MDA-MB-231 and Ramos cells (Homo sapiens, UniProt A2A288); experiment: as above; type: cell-based; details: 200 μM, insitu, ramos
Chain of cysteines in MDA-MB-231 and Ramos cells (Homo sapiens, UniProt A2A288) (A2A288 whole entry): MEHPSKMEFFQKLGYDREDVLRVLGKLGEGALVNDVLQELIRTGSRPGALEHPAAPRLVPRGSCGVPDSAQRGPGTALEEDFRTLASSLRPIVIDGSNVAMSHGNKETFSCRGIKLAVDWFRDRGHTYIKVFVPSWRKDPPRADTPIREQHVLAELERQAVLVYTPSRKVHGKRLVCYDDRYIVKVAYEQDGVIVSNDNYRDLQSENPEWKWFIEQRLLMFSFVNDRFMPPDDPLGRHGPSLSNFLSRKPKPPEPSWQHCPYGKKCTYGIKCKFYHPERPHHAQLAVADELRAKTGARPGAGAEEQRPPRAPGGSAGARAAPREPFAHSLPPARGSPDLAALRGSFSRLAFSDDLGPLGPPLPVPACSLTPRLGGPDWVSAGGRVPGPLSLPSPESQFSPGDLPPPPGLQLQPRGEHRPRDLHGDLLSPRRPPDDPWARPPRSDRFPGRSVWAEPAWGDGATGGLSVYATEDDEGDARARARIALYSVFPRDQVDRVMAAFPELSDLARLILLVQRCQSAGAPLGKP

[11] = molecular target: cysteines in MDA-MB-231 and Ramos cells (Homo sapiens, UniProt Q13232); experiment: as above; type: cell-based; details: 200 μM, insitu
Chain of cysteines in MDA-MB-231 and Ramos cells (Homo sapiens, UniProt Q13232) (Q13232 whole entry): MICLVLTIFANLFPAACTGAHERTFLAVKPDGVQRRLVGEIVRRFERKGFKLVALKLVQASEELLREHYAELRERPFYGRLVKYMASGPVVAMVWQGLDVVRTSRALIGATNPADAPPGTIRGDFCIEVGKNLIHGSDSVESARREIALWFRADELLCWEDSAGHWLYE

[12] = molecular target: cysteines in MDA-MB-231 and Ramos cells (Homo sapiens, UniProt Q9P2X3); experiment: as above; type: cell-based; details: 200 μM, insitu, 231
Chain of cysteines in MDA-MB-231 and Ramos cells (Homo sapiens, UniProt Q9P2X3) (Q9P2X3 whole entry): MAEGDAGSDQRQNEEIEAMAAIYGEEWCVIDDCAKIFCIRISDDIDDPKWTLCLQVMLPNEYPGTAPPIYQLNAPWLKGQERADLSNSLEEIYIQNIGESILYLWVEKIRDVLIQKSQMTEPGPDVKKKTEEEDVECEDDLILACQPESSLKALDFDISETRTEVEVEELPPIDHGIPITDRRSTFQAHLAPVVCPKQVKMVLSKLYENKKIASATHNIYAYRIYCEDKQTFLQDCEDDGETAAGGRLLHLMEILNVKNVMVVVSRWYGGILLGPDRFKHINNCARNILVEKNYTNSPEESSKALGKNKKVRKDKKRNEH

Chain of CYR61 C70 (O00622) (O00622 25-381): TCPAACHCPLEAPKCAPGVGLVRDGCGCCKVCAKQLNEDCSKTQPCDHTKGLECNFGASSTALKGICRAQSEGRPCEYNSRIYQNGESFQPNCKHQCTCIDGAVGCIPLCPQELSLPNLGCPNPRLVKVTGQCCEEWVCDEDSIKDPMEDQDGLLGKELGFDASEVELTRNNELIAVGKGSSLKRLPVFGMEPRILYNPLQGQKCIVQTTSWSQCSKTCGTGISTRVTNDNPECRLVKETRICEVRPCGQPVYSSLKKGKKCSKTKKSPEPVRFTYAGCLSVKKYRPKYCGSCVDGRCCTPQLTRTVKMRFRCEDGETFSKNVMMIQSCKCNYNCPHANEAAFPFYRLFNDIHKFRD

## O=C(CCl)Nc1cc(C(F)(F)F)cc(C(F)(F)F)c1 [compound 3]
CYR61 C70 (O00622); 500 μM, in vitro, MDA-MB-231
  R value (DMSO/fragment): 20.0

## O=C(CCl)N1CCN(S(=O)(=O)c2ccccc2F)CC1 [compound 10]
[1]; 200 μM, insitu, ramos
  isoTOP-ABPP ratio, cysteine Q99986_C50: 0 .7
[2]
  isoTOP-ABPP ratio, cysteine P41226_C599: 8.0
[3]
  isoTOP-ABPP ratio, cysteine P16455_C145: 20.0
[4]
  isoTOP-ABPP ratio, cysteine Q9Y2S7_C143: 13.9

## O=C(CCl)NC(=O)NC12CC3CC(CC(C3)C1)C2 [compound 12]
[5]
  isoTOP-ABPP ratio, cysteine Q9NZB2_C531: 20.0

## O=C(CCl)NCCc1c[nH]c2ccccc12 [compound 13]
[6]; 231
  isoTOP-ABPP ratio, cysteine Q8NEC7_C140: 1.8
[6]; ramos
  isoTOP-ABPP ratio, cysteine Q8NEC7_C140: 20.0

## O=C(CCl)NC12CC3CC(CC(C3)C1)C2 [compound 21]
[7]; 231
  isoTOP-ABPP ratio, cysteine Q13613_C117: 0.9
[2]
  isoTOP-ABPP ratio, cysteine P41226_C599: 1.0
[5]
  isoTOP-ABPP ratio, cysteine Q9NZB2_C531: 1.6
[8]; 231
  isoTOP-ABPP ratio, cysteine Q15796_C81: 1.3

## CC(C)CCOCCNC(=O)CCl [compound 27]
CYR61 C70 (O00622); 500 μm in-vitro ramos_231
  isoTOP-ABPP ratio (reactivity profile), O00622_C70: 1.1

## O=C(CCl)N1CCN(CC(=O)N2CCOCC2)CC1 [compound 29]
[7]; ramos
  isoTOP-ABPP ratio Q13613_C117: 1.5
[9]
  isoTOP-ABPP ratio Q6PJG6_C673: 4.6
[10]
  isoTOP-ABPP ratio A2A288_C367: 1.3
[8]; ramos
  isoTOP-ABPP ratio Q15796_C81: 1.3
[11]; ramos
  isoTOP-ABPP ratio Q13232_C158: 1.5

## C=CC(=O)N(Cc1cccnc1)c1cc(C(F)(F)F)cc(C(F)(F)F)c1 [compound 31]
[3]
  isoTOP-ABPP ratio, P16455_C145: 1.2
[9]
  isoTOP-ABPP ratio Q6PJG6_C673: 20.0
[12]
  isoTOP-ABPP ratio Q9P2X3_C195: 0.5
[10]
  isoTOP-ABPP ratio A2A288_C367: 1.9

## Cc1ccc(C=C(C#N)C(=O)NCCN2CCOCC2)cc1 [compound 41]
[4]
  isoTOP-ABPP ratio Q9Y2S7_C143: 1.2

## CC1CCc2ccccc2N1C(=O)CCl (stereo not drawn) [compound 45]
[1]; cysteine Q99986_C50, fragment 200 μM, in situ, 231 (MDA-MB-231) cells
  reactivity profile of liganded cysteine Q99986_C50 with fragment electrophile (isoTOP-ABPP ratio): 4.1
[12]
  isoTOP-ABPP ratio Q9P2X3_C195: 20.0
[6]; 231
  isoTOP-ABPP ratio Q8NEC7_C140: 20.0
[11]; 231
  isoTOP-ABPP ratio Q13232_C158: 8.8
